Data: patent publication US11730705B2, “Small molecule CMKLR1 antagonists in inflammatory disease” (The Board of Trustees of the Leland Stanford Junior …, priority 2019, dated 2023)
Like-named read-outs stand apart in the source and are kept apart here.

Tests used:
[1] = target: T1, Cyp2C19 (Homo sapiens, UniProt P33261); assay: Cyp enzyme inhibition, human liver microsomes; assay type: in vitro ADME; conditions: 30 min pre-incubation
T1 construct: Human liver microsomes were pre-incubated with 7 concentrations; tissue Cyprotex/Evotec AG; host or cells: human liver microsomes
Experimental: (§1) Cyp enzyme inhibition. Human liver microsomes were pre-incubated with 7 concentrations ([…], duplicate wells) of α-NETA for 30 min.

[2] = target: T2, Cyp2B6 (Homo sapiens, UniProt P20813); assay: Cyp enzyme inhibition, human liver microsomes; assay type: in vitro ADME; conditions: 30 min pre-incubation
T2 construct: Human liver microsomes were pre-incubated with 7 concentrations; tissue Cyprotex/Evotec AG; host or cells: human liver microsomes
T2 sequence (P20813 1-491): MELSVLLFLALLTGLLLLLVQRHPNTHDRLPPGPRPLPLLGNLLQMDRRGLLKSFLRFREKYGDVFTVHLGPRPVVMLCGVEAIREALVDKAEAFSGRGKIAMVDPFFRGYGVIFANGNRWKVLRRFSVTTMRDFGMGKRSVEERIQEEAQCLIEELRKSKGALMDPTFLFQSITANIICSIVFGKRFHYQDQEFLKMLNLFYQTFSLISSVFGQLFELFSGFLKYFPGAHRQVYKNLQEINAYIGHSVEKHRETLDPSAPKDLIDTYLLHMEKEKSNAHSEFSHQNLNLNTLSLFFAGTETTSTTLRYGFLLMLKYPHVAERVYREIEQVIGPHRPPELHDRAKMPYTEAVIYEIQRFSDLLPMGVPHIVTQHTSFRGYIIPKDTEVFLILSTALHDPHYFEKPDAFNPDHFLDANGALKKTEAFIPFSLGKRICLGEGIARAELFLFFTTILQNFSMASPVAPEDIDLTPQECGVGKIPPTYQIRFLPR
Experimental: as §1

[3] = target: T3, Cyp2C9 (Homo sapiens, UniProt P11712); assay: Cyp enzyme inhibition, human liver microsomes; assay type: in vitro ADME; conditions: 30 min pre-incubation
T3 construct: Human liver microsomes were pre-incubated with 7 concentrations; tissue Cyprotex/Evotec AG; host or cells: human liver microsomes
Experimental: as §1

[4] = target: T4, Cyp2C8 (Homo sapiens, UniProt P10632); assay: Cyp enzyme inhibition, human liver microsomes; assay type: in vitro ADME; conditions: 30 min pre-incubation
T4 construct: Human liver microsomes were pre-incubated with 7 concentrations; tissue Cyprotex/Evotec AG; host or cells: human liver microsomes
T4 sequence (P10632 1-490): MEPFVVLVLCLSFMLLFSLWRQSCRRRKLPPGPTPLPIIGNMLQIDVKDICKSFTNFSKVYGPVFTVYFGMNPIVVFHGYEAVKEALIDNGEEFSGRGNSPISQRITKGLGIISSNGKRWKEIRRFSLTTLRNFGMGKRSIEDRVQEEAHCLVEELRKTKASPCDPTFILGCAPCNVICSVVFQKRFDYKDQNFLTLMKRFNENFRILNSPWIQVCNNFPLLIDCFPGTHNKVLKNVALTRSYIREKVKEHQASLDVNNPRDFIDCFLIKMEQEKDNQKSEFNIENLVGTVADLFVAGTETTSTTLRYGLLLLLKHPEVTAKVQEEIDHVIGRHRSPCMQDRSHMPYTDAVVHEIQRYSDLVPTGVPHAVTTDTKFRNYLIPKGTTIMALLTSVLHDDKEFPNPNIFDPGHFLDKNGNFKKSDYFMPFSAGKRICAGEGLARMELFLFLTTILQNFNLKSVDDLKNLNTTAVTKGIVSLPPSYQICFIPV
Experimental: as §1

[5] = target: T5, CMKLR1 (Homo sapiens, UniProt Q99788); assay: β-arrestin recruitment assay (chemerin-mediated β-arrestin2 association with CMKLR1); assay type: cell-based
T5 construct: host or cells: CHO-K1 (PathHunter)
T5 sequence (Q99788 1-373): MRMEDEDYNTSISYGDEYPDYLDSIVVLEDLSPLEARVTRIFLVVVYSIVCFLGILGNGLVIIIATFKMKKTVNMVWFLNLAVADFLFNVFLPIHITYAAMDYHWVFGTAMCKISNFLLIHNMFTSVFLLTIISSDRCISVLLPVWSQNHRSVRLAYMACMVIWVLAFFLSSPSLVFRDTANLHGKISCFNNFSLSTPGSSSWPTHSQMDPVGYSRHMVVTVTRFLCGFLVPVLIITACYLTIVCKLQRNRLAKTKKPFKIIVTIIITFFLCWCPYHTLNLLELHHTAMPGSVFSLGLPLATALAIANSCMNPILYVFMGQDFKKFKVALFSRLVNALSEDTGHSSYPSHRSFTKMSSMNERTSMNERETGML
Experimental: FIG. 15A-15D. […] IC50 values were determined based on 6-point dose-response curves for each compound. (FIG. 15A) α-NETA. […] (FIG. 15A-15C) mean±SEM, n=3-18 independent experiments. […] 0.2 ml each compound (in 10% captisol) or vehicle control was administered by oral gavage beginning one day prior to psoriasis induction. Back skin thickness was measured daily and normalized to day 0. mean±SEM, n=10 mice for vehicle and α-NETA groups pooled from two independent trials; n=3 mice for (27) and (6) from one trial.
Cell culture. […] DiscoverX PathHunter® CHO-K1 CMKLR1 β-Arrestin Cells were grown in RPMI lacking phenol red (Gibco, Life Technologies), supplemented with L-glutamine, penicillin-streptomycin, sodium pyruvate, non-essential amino acid, BCS, hygromycin, and G418-sulfate.
β-arrestin recruitment assay. CMKLR1-CHO-β-Arrestin cells were seeded in 96 well plates at 1×10^5 cell/ml-100 ul/well and incubated overnight at 37° C., 5% CO2. The next day, media was removed and cells were pre-incubated in PBS with α-NETA or test compound (95 ul/well) in a 6 point dose response curve from 100 μM to 0.3 μM for 10 min at RT. (α-NETA and test compounds were reconstituted in DMSO; final DMSO concentration in each well was 0.1%). After 10 min, 5 ul of recombinant human chemerin (R&D Systems) at a final concentration of 20 nM was added to each well. Plates were incubated for 90 min at 37° C., 5% CO2. Media was then removed and 50 ul of chemiluminescent substrate (Tropix Gal-Screen, Applied Biosciences) was added. The plate was incubated for 1 hr at RT and luminescence was detected using the SpectraMax M5 plate reader (Molecular Devices). For each independent trial (single replicate dose curves), data was normalized to the maximum signal per compound tested and an IC50 value was generated using GraphPad Prism software. The average IC50 value for n independent trials (as specified in the table) is reported.

[6] = target: Pregnane X receptor (PXR) (Homo sapiens, UniProt O75469); assay: Cyp induction (PXR luciferase reporter); assay type: cell-based; conditions: concentrations up to 50 uM
Experimental: Pregnane X receptor (PXR) activation was used as a marker of Cyp induction.
Pregnane X receptor (PXR) activation was used as a marker of Cyp induction. An engineered human hepatoma cell line with a PXR luciferase reporter was incubated with the indicated concentrations of α-NETA, Rifampicin (positive control), or DMSO (negative control), and luciferase activity assessed (Cyprotex/Evotec AG).

T1 sequence (P33261 whole entry): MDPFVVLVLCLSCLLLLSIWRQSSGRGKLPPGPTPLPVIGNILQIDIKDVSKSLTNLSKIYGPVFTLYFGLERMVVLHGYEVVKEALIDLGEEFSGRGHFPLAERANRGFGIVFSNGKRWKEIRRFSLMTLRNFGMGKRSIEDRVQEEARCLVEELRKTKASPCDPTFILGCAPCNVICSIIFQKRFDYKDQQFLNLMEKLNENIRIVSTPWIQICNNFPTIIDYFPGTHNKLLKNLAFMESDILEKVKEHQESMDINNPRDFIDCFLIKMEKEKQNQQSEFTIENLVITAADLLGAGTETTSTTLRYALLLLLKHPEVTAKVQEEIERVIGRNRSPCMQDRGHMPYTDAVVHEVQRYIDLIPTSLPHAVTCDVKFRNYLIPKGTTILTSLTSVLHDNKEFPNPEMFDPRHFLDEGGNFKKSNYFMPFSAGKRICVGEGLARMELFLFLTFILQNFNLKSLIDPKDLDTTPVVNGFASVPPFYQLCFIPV
T3 sequence (P11712 whole entry): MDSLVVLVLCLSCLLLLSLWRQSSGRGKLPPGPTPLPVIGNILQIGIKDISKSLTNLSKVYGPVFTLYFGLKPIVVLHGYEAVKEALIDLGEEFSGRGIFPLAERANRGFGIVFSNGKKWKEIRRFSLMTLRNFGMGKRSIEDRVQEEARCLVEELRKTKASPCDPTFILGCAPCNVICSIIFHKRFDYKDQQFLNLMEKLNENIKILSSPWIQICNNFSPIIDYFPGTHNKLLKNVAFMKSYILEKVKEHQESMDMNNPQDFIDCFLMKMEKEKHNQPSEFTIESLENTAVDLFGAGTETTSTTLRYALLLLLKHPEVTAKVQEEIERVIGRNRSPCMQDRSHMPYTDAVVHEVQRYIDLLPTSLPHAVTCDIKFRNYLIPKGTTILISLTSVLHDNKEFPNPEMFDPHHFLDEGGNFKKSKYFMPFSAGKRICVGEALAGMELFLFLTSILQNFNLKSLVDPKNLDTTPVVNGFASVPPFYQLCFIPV
Chain of Pregnane X receptor (PXR) (O75469 whole entry): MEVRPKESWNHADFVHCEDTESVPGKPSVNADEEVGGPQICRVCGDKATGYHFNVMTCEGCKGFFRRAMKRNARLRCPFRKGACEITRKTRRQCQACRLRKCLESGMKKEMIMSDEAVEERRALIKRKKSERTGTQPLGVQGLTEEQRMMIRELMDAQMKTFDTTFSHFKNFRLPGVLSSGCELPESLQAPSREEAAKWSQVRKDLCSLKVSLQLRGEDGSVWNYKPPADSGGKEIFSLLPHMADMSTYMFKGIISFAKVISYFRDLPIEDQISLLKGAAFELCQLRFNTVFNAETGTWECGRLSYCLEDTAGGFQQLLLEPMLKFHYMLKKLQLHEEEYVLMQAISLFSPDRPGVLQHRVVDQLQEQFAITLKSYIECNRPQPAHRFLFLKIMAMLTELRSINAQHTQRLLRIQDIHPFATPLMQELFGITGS

C[N+](C)(C)CCC(=O)c1cccc2ccccc12.[I-] [α-NETA, 2-(α-naphthoyl) ethyltrimethylammonium iodide]
IC50 [1]: 84 µM | IC50 [2]: 0.12 µM | IC50 [3]: 14.6 µM | IC50 [4]: 1.5 µM | IC50 ([5]; Table 2, tertiary amines, chemerin 20 nM, CHO transfectants, read-out: β-arrestin IC50 μM mean ± SEM (n)): 4.9 ± 1.5 µM | IC50 ([5]; initial studies, 4-5 years earlier, different source of α-NETA, read-out: β-arrestin2 inhibition IC50): 0.38 µM | IC50 ([5]; values given in running text b220, read-out: β-arrestin2 assay IC50): 2.3 µM | PXR activation (marker of Cyp induction) [6]: did not induce substantial PXR activity
